Laboratory results: patent US11306063B2, “Heterocyclic naphthoquinones derivatives for use in the treatment of cancers including Cushing disease” (Commissariat a l'Energie Atomique et aux Energies …, priority 2016, dated 2022)

Key:
p53 in HCT116 cells = test: Protein expression by immunoblot, HCT116; type: cell-based, human; conditions: dose dependent; FIG. 7B
Experimental: Actin or Tubulin (Tub) serve as loading controls. One representative experiment out of three is presented.
Cells were treated by either DMSO (0.5%) or increasing doses of the selected molecules from 1 μM to 10 μM over 6 to 24 hours as indicated. Cell lysates were analyzed by immunoblotting following standard procedure using primary antibodies from Cell Signaling: anti-total P53 (#9282), anti-phosphoP53 Kit (#9919), anti-cyclinD1 (#2926), anti-FAS (#3189), anti EGFR (#4267), anti-Phospho (tyr1068) EGFR (#2234), anti Met (#4560), anti-Akt (#9272), anti Phospho(Ser473)-Akt (#9271) or anti-Myc (Santa Cruz Technology #Sc-40). Tubulin was detected using anti α-tubulin primary antibody (in-house: the polyclonal Glu-tubulin antibody (L4) is available commercially from Abcys (Paris, France)). HRP-coupled anti-rabbit (#A6154) and anti-mouse (#A4416) secondary antibodies were purchased from Sigma. HRP activity was detected through HRP chemoluminescence detection reagent (Millipore, #WBLUF0100). Apoptotic cell death induction was observed through the observation of PARP cleavage using anti-PARP primary antibodies anti-PARP (46D11) (#9532). Positive control was Epotoside at 50 μM or 100 μM, a known drug inducing cancerous cell death by apoptosis.

chicken embryos = test: Toxicity in the chick embryo model; type: in vivo; conditions: each second day at 2 μM or 10 μM; FIG. 4B
Experimental: The number of dead embryo evaluates the toxicity after 10 days of the treatment as well as the research of abnormality on 22 checkpoints observed on surviving embryos at two concentrations of drugs (i.e. 2 μM and 10 μM). • Head: Size, Closure, Eyes, Ear, Face and Branchial are derivatives, Mobility; • Body: Size, Axis deformation, ventral and dorsal Closures, Caudal formation, Sexual area; • Limbs: Size, Axis morphology, Mobility, • Skin: Appendage formation, Attachment, Blood vessel; • Extra-Embryonic Structures: Vascularisation, Transparency, Attachment, Blood vessel Results

[1] = test system: BT-549 triple negative breast cancer cells; test: Wounding assay, BT-549; type: cell-based; conditions: from 1 μM concentration; mitomycine 2 μg/ml; 24 hours
Experimental: In addition the migratory capacity of two additional triple negative breast cancer cells lines: the metastatic MDA-MB231 and BT-549 showing high migratory capacity was analyzed in a classical wound assay.
BT-549, MDA-MB231 cell lines were issued from the American Type Culture Collection (ATCC). For wounding assays, cells were seeded in 24-well microplates (Culture Insert 21, ref 250210, Ibidi®). […] Cell spreading was then visualized during 24 hours by videomicroscopy (1 acquisition each 30 min). A representative picture of 3 is presented at 0 and 12 hours of drug treatment out. In Graphs, curves represents the empty surface (devoid of cells) between the two cell layers (delimited by using Image J software).

USP8-FL = USP8-FL (Homo sapiens, UniProt P40818); test: biochemical
USP8-FL, sequence (P40818 whole entry): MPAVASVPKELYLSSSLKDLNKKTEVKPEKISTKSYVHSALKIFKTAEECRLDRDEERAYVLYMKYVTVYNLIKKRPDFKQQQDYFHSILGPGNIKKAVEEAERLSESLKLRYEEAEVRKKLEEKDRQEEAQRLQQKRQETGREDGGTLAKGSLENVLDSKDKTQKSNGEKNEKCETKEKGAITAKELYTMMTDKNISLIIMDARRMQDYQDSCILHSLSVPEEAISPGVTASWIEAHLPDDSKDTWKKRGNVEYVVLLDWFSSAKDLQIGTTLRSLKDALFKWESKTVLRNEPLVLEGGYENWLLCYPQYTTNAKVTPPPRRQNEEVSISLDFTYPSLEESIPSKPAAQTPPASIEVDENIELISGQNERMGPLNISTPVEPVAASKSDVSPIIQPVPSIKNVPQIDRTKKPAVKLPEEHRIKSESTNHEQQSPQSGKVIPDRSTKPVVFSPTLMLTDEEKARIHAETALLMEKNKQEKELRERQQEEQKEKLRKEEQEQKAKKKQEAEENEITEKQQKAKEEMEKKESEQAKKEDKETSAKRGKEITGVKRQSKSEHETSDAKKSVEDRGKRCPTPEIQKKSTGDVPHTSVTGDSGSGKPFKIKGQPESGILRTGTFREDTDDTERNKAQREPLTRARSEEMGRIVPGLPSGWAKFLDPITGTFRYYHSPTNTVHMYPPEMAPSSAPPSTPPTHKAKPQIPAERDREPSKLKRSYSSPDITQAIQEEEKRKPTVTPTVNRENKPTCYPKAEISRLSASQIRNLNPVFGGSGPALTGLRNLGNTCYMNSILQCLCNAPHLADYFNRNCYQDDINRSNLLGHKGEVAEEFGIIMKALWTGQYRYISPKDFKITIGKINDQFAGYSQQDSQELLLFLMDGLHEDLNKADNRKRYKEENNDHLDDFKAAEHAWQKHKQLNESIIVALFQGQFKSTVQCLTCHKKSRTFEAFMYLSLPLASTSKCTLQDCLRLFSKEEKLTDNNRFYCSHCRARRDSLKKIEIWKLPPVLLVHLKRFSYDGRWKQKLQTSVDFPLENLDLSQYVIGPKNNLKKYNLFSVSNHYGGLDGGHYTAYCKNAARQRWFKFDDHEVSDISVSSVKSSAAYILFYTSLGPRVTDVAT

HCC827 cells = test: Cytotoxicity assay (PrestoBlue cell viability), HCC827; type: cell-based; conditions: Homo sapiens, 48 hours treatment
Experimental: Messa, Messa DX5, HCT116, HEK-293, PC-3, LNCaP, HCC827 and H1975 cell lines are issued from the American Type Culture Collection (ATCC).
For cytotoxicity assays, cells were seeded in 96-well microplates 24 hours before the addition of increasing concentrations of each compound in the culture medium. Cell viability was analyzed 48 hours following addition of each compound through the monitoring of mitochondrial […] activity using PrestoBlue® Cell Viability Reagent (Invitrogen; #A-13261). Paclitaxel was used as a control which is cytotoxic on various cancerous cells although not on chemoresistant MESSA DX5 lineage.

SMILES: CCCCS(=O)(=O)Cc1nc2c(nc1CS(=O)(=O)CCCC)C(=O)c1ccccc1C2=O [PCR6236]
- p53 expression, HCT-116 (p53 in HCT116 cells): restored high levels of p53 expression
- toxicity (death, macroscopic abnormalities) in chick embryo (chicken embryos): No significant toxicity
- cell migration in wounding assay, BT-549 [1]: prevents triple negative breast cancer cell migration
- IC50 (USP8-FL): < 30 nM
- EC50 (HCC827 cells): 1800 nM
